Measurements from patent publication US11130761B2, “Substituted pyrrolo[2,1-f][1,2,4]triazines as FGFR inhibitors” (CSPC ZHONGQI PHARMACEUTICAL TECHNOLOGY (SHIJIAZHUANG) CO., …, priority 2016, dated 2021).

Tests used:
human FGFR4 = target: T1, human FGFR4 (Homo sapiens, UniProt P22455); assay: 33P isotope-labeled kinase activity assay (Reaction Biology Corp), FGFR4; assay type: biochemical; conditions: for IC50: 33P-ATP kinase assay, ATP 100 μM, kinase 2.5 nM, substrate pEY + Mn, 120 minutes at room temperature; for Inhibition activity difference (IC50 ratio) FGFR4/FGFR1: ratio of FGFR4 IC50 to FGFR1 IC50
T1 construct: purchased Invitrogen P3054
Description: (§1) The IC50 value was determined by ^33P isotope-labeled kinase activity assay (Reaction Biology Corp) to evaluate the inhibitory activity of the test compounds on human FGFR1 and FGFR4.
(§2) Buffer: 20 mM Hepes (pH 7.5), 10 mM MgCl2, 1 mM EGTA, 0.02% Brij35, 0.02 mg/mL BSA, 0.1 mM Na3VO4, 2 mM DTT, 1% DMSO.
(§3) Test procedure: the test compound was dissolved in DMSO at room temperature to prepare a 10 mM solution for use. The substrate was dissolved in a freshly prepared buffer, followed by addition of the kinase to be tested and the resulting mixture was thoroughly mixed. The solution of the test compound in DMSO was added to the above reaction solution by acoustic technique (Echo 550). The concentration of the compound in the reaction solution was 10 μM, 3.33 μM, 1.11 μM, 0.370 μM, 0.123 μM, 41.2 nM, 13.7 nM, 4.57 nM, 1.52 nM, 0.508 nM, or […], 39.1 nM, 9.8 nM, 2.4 nM, 0.61 nM, 0.15 nM, 0.038 nM. After incubation for 15 minutes, ^33P-ATP (activity 0.01 μCi/μL, corresponding concentration was listed in table 1) was added to initiate the reaction. The reaction was allowed to proceed at room temperature for 120 minutes, then the reaction solution was spotted on P81 ion exchange filter paper (Whatman #3698-915). After the filter paper was washed with 0.75% phosphoric acid solution, the radioactivity of the remained phosphorylated substrate on the filter paper was determined. The kinase activity data was expressed as a ratio of the kinase activity of the test compound to the kinase activity of the control group (DMSO), and the IC50 value was obtained by curve fitting using Prism4 software (GraphPad).

human FGFR1 = target: T2, human FGFR1 (Homo sapiens, UniProt P11362); assay: 33P isotope-labeled kinase activity assay (Reaction Biology Corp), FGFR1; assay type: biochemical; conditions: 33P-ATP kinase assay, ATP 5 μM, kinase 1.75 nM, substrate pEY + Mn, 120 minutes at room temperature
T2 construct: purchased Invitrogen PV3146
Description: as §1, §2, §3

T1 sequence (P22455 22-802): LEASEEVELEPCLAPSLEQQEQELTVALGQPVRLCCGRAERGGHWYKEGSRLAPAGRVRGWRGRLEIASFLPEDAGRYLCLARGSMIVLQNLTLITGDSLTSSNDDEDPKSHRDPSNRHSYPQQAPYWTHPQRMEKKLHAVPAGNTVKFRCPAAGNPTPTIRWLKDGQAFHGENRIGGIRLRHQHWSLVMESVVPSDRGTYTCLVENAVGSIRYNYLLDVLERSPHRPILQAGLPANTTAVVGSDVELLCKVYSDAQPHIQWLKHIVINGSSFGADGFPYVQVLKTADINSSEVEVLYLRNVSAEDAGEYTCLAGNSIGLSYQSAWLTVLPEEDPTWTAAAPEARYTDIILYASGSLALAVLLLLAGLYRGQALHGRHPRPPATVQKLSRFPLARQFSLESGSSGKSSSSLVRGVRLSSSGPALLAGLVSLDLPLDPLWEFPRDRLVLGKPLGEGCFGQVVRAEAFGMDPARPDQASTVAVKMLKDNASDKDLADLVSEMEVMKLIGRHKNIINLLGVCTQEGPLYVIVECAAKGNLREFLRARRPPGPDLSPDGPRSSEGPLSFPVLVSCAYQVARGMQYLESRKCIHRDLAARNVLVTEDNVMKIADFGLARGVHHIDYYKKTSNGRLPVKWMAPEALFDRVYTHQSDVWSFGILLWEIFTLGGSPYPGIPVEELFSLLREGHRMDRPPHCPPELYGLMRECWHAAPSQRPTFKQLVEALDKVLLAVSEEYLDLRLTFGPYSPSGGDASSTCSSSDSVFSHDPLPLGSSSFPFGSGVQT
T2 sequence (P11362 22-822): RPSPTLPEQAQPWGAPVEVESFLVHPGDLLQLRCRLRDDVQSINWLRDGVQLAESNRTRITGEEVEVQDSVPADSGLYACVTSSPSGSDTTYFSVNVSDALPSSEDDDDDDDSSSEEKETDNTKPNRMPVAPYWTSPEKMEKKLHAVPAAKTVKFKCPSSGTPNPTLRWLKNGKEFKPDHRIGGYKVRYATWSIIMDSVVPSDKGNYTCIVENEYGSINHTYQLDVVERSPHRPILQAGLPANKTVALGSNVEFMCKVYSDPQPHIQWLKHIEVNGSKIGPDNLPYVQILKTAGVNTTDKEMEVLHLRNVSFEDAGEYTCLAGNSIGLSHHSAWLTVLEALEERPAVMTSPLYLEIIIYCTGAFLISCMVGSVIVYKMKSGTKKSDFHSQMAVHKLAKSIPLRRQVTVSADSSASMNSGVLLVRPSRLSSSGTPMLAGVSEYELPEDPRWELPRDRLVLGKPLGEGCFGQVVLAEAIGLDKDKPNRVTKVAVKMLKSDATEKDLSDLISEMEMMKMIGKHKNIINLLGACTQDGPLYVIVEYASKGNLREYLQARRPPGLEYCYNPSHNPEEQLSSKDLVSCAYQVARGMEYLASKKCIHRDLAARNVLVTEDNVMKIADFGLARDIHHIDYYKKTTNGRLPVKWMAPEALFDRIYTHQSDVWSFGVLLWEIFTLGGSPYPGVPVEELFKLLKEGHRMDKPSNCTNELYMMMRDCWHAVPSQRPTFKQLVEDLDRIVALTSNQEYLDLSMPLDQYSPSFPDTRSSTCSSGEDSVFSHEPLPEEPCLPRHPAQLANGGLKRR

C=CC(=O)N1CCC(c2cc(C#Cc3cc(OC)cc(OC)c3)c3c(N)ncnn23)C1 (single isomer, unassigned) [Embodiment 1]
IC50 (human FGFR4): 125 nM
Inhibition activity difference (IC50 ratio) FGFR4/FGFR1 (human FGFR4): 7
IC50 (human FGFR1): 18.3 nM

C=CC(=O)N1CCC(c2cc(C#Cc3c(F)c(OC)cc(OC)c3F)c3c(N)ncnn23)C1 (single isomer, unassigned) [Embodiment 3]
IC50 (human FGFR4): 6.6 nM
Inhibition activity difference (IC50 ratio) FGFR4/FGFR1 (human FGFR4): 9
IC50 (human FGFR1): 0.7 nM

C=CC(=O)N1CCC(c2cc(C#Cc3c(F)c(OC)cc(OC)c3F)c3c(N)ncnn23)C1 (single isomer, unassigned) [Embodiment 4]
IC50 (human FGFR4): 0.08 nM
Inhibition activity difference (IC50 ratio) FGFR4/FGFR1 (human FGFR4): 1
IC50 (human FGFR1): 0.07 nM

C=CC(=O)N1CCC(c2cc(C#Cc3c(Cl)c(OC)cc(OC)c3Cl)c3c(N)ncnn23)C1 (single isomer, unassigned) [Embodiment 5]
IC50 (human FGFR4): 450 nM
Inhibition activity difference (IC50 ratio) FGFR4/FGFR1 (human FGFR4): 21
IC50 (human FGFR1): 21.8 nM

C=CC(=O)N1CCC(c2cc(C#Cc3c(Cl)c(OC)cc(OC)c3Cl)c3c(N)ncnn23)C1 (single isomer, unassigned) [Embodiment 6]
IC50 (human FGFR4): 4.6 nM
Inhibition activity difference (IC50 ratio) FGFR4/FGFR1 (human FGFR4): 15
IC50 (human FGFR1): 0.3 nM
